In patent US5723494A, “Derivatives of glutamic and aspartic acids, a method of preparing them, and their use as drugs for enhancing memory and learning” (priority 1993, dated 1998):
Entries after “also recorded” stand apart in the source; their conditions may differ.

Assays:
[1] = Antidepressant activity in the behavioural despair test in the mouse; format: in vivo, mouse (male CD1)
[2] = Antagonism of the amnesic effect induced by scopolamine in the passive avoidance test in the rat; format: in vivo; conditions: for % Effect vs controls / Latency (STL): FS + SCOP
Protocol: 4) Antagonism of the amnesic effect induced by scopolamine in the "passive avoidance" test in the rat.
The shuttle box equipment was used for passive avoidance as described in Experiment 2 with the following modifications: the compounds (or physiological solutions for the control group) were administered intraperitoneally (IP) 45 min before the training, whereas scopolamine (SCOP) was administered 30 min before the training. The foot shock (FS) consisted of a 0.2 mA shock of 5 sec duration.
The retest to determine memory was executed 24 h after the training. In each individual experiment, the following groups were used: a control group (-FS), a control group (+FS), a control group (FS+SCOP), 3 treatment groups with different doses of the product under test (FS+SCOP).

[3] = Antiamnesic activity in the mouse (step-down passive avoidance, amnesia induced by ECS); format: in vivo, mouse (CD1 male); conditions: mouse
[4] = Acute toxicity (LD50) in the mouse; conditions: in vivo

## CC1(C)CCC(NC(=O)[C@@H](N)CCC(=O)O)CC1 [Compound 23, 1-(4,4-dimethylcyclohexyl)-L-isoglutamine[4-amino-5-(4',4'-dimethylcyclohexylamine)-5-oxopentanoic acid (S)]]
[1]; 5 min, 3 mg/kg IP, 5 minutes, read-out: Decrease in immobility (as %) vs the controls
  inhibition in vivo at 3 mg/kg: 14%
[1]; 5 min, 10 mg/kg IP, 5 minutes, read-out: Decrease in immobility (as %) vs the controls
  inhibition in vivo at 10 mg/kg: 31%
[1]; 5 min, 30 mg/kg IP, 5 minutes, read-out: Decrease in immobility (as %) vs the controls
  inhibition in vivo at 30 mg/kg: 94%
[1]; IP
  Antidepressant activity (in words): antidepressant effect of the same order of magnitude as the comparison drug used, amitriptyline
[1]; IP, read-out: ED50 (dose antagonising immobility time by 50%)
  ED50: 11.1 mg/kg
[2]; 0.1 mg/kg IP
  % Effect vs controls: 7.1%
  Latency (STL): 60.8 s
[2]; 1 mg/kg IP
  % Effect vs controls: 38.0%
  Latency (STL): 72.0 s
[2]; 10 mg/kg IP
  % Effect vs controls: 55.8%
  Latency (STL): 78.6 s
[2]; IP, rat, retest 24 h after training, read-out: ID50 (dose antagonizing the amnesic effect of scopolamine by 50%)
  ED50: 4.7 mg/kg
[2]; rat, IP
  Antagonism of the amnesic effect of scopolamine (in words): antagonizes the amnesic effect induced by scopolamine in a dose-dependent manner; also recorded: comparable, in this model, with that of tacrine
[3]; OS
  Antiamnesic activity (in words): particularly remarkable
[3]; po, 0.1 mg/kg OS, retest 24 h after training, read-out: Reversal of the amnesia (% vs controls), as the increase in the Step Down Latency
  change in vivo at 0.1 mg/kg: 20%
[3]; po, 1 mg/kg OS, retest 24 h after training, read-out: Reversal of the amnesia (% vs controls), as the increase in the Step Down Latency
  change in vivo at 1 mg/kg: 40%
[3]; po, 3 mg/kg OS, retest 24 h after training, read-out: Reversal of the amnesia (% vs controls), as the increase in the Step Down Latency
  change in vivo at 3 mg/kg: 37%
[3]; po, 10 mg/kg OS, retest 24 h after training, read-out: Reversal of the amnesia (% vs controls), as the increase in the Step Down Latency
  change in vivo at 10 mg/kg: 61%
[3]; po, 30 mg/kg OS, retest 24 h after training, read-out: Reversal of the amnesia (% vs controls), as the increase in the Step Down Latency
  change in vivo at 30 mg/kg: 67%
[3]; po, OS, 60 min before training, read-out: ID50 (antiamnesic activity, dose inhibiting the amnesic effect of the ECS by 50%)
  ED50: 4.6 mg/kg
[4]; IV
  LD50: 290 mg/kg
[4]; po, OS
  LD50: 1300 mg/kg
